Experimental data as given in patent US12264185B2, “Stabilized BCL9 peptides for treatment of aberrant Wnt signaling” (WntRx Pharmaceuticals Inc., priority 2015, dated 2025).

Columns and labels:
[1] = test system: HCT116 cells; type: cell-based
Method: The additional polypeptides were tested in a CellTiterGlo luminescent cell viability assay (Promega). ICG001 was used as a positive control in this assay.

[2] = test system: Colo320DM tumor cells; assay: Colo320DM colon cancer xenograft model in BALB/c nude mice; type: in vivo; settings: for tumor volume (mean±standard error of mean) / tumor volume smaller than vehicle-treated group: Day 14
Method: Based on the favorable PK profile of WX-024 in mice, as described above, the efficacy of WX-024 was investigated in a mouse xenograft colon cancer model. The Colo320DM colon cancer model in BALB/c nude mice was employed, in which Colo320DM cells are injected subcutaneously into BALB/c nude mice.
Colo320DM tumor cells (ATCC) were cultured in RPMI1640 medium (GIBCO, Cat #31800022) supplemented with 10% heat-inactivated fetal bovine serum at 37° C. Harvesting of Colo320DM cells was done when cells were growing in an exponential growth phase. Female BALB/c nude mice (Shanghai Laboratory Animal Center) were used for the study at 6-8 weeks of age. Animals had free access to water and irradiation sterilized food throughout the study period. Each mouse (n=16) was inoculated subcutaneously in the right flank region with 5×10^6 Colo320DM tumor cells in 0.1 mL of PBS. Tumors were allowed to develop for 14 days after inoculation, at which time the mean tumor size was 156.78 mm^3. During the study, the care and use of animals was conducted in accordance with the Association for Assessment and Accreditation of Laboratory Animal Care (AAALAC). Following inoculation of tumor cells, animals were checked daily for morbidity and mortality. The body weight of each animal was monitored throughout the study.
4% ethanol+8% Tween 80+88% 10 mM PBS was used as a vehicle. All treatments were administered once daily. The WX-024 solution was dissolved in pure DMSO and then diluted with sterile water. The dosing volume was adjusted for body weight such that the dosing volume for each animal was 0.05 mL/10 g of body weight for i.v. dosing. The treatment period was 14 days.
All treatments were begun as daily i.v. dosing. […] The injection method was changed to i.p. injection at Day 7 for the 10 mg/kg and 15 mg/kg groups. Dosing via i.p. injection (with the dosing volume adjusted to 0.1 ml/10 g) was maintained for the 10 and 15 mg/kg groups from Day 7 of the treatment period onwards, and the body weight of these animals stabilized.
Tumor volumes were measured in two dimensions using a caliper at Days 0, 3, 5, 7, 9, 11, 14 of the treatment period (all dosing starting after 14 days of tumor development). The volume of the tumor was measured using the equation: V=0.5 a×b^2, wherein a and b are the long and short diameters of the tumor, respectively. Tumor volumes are expressed in mm^3. At the end of the study (i.e., following 22 days of treatment) the tumor mass weight was measured.
At the conclusion of the Colo320DM model, tumor and intestinal samples were collected, fixed in formalin, and imbedded in paraffin using standard techniques. Four μm-thick section of tissue were prepared for immunohistochemistry (IHC) staining. The tissue sections were deparaffinized and rehydrated via sequential washing with xylene, graded ethanol and phosphate-buffered saline (PBS). Following deparaffinization and rehydration, the tissue sections were subjected to high temperature-induced epitope retrieval in target retrieval solution (10 mM citrate buffer; pH 6.0).
Antibody binding was detected using an UltraVision Quanto Detection System (Thermo, Cat #TL-060-QHD) kit following the manufacturer's instructions. The sections were treated with Hydrogen Peroxide Block and Ultra V Block (provided in the kit) and then incubated with primary antibody overnight at 4° C.: CD44 (Abcam, Cat #ab157107 diluted 1:500), Axin (LSBio, Rabbit IgG, Cat #LS-B7029, Lot #51907, Stock Conc.: 1000 ug/ml), or VEGFA (VEGFA: LS Bio, Rabbit IgG, Cat #LS-B10263, Lot #65323, Stock Conc.: 1000 ug/ml). Rabbit IgG replaced the primary antibody in the negative control. All sections were counterstained with hematoxylin, dehydrated and mounted. IHC images were taken with an Olympus CKX31SF reverse microscope.

[3] = test system: CT26 cells; assay: CT26 syngeneic mouse model of colon cancer (Balb/c); type: in vivo, mice
Method: The syngeneic mouse model of colon cancer using CT26 was then assessed. Male Balb/c mice were injected subcutaneously in the right flank with 5×10^4 CT26 cells each at approximately 5 weeks of age. […] Eight mice were included in each treatment group.
The whole blood was taken from each mouse. Lymphocytes were purified from the blood samples by Ficoll, and the cells were stained with fluorescent anti-CD4 antibody. Data were measured by flow cytometry.
As described above, the whole blood was taken from each mouse. Lymphocytes were purified from blood by Ficoll, and the cells were stained with fluorescent anti-CD8 antibody. Data were measured by flow cytometry.
To further assess whether WX-024 is capable of modulating a tumor microenvironment, tumor and blood samples were collected in anticoagulation tubes at the end of the study. Single cells separation was performed and then cells were stained for FACS analysis. For cell surface staining, CD45-PerCP-Cy5, CD4-FITC, CD8-PE-Cy7, and CD25-PE were used. For intranuclear staining, cells were permeabilized overnight and then stained with Foxp3-APC for 60 minutes.
The in vivo efficacy of WX-035 in treating a cancer was assessed in a syngeneic mouse model, following the procedures described in Example 5.3. Trametinib, a known MEK inhibitor, was used as a comparison. Briefly, balb/c mice were inoculated with CT26 and treatment started when tumor volume reached to about 100 mm^3. The mice were then divided into three groups and began administered with a vehicle, 40 mg/kg WX-035, or 1 mg/kg trametinib for 7 consecutive days.
At the end of the study described in Example 9.2, a tumor sample from each mouse was collected to assess the effect of WX-035 in modulating T cell activation. The FACS analysis of each tumor sample was performed following the procedure described in Example 5. A shown in FIG. 36A, treatment with WX-035 reduced the total amount of CD45^+ cells. […] Likewise, Foxp3^+ CD25^+ T cells were reduced by WX-035 treatment (FIG. 36C). […] Furthermore, by increasing the ratio of cytotoxic T cells over regulatory T cells, WX-035 may induce a microenvironment that favors an immune reaction beneficial for tumor treatment. Of note, the samples collected from this experiment were also assessed for LGR5 expression.

[4] = Preclinical summary of multiple animal models; type: in vivo
Excerpt: The in vivo efficacy of WX-024 was confirmed in multiple animal models.

[5] = in vivo; settings: male, ICR, mouse
Method: The tail vein was used for i.v. injections. […] Following injections, blood samples were obtained via the retro-orbital vein at 5 min, 1, 2, 4, 6, 8, 12, and 24 hours postdose. Plasma was obtained from the blood samples following mixing with sodium heparin and centrifugation.
LC analysis was done using an Agilent 100 HPLC. MS analysis was done using an AB Sciex API 4000. Calibration standards were prepared by serial dilution.
The maximum observed concentration (Cmax), terminal half-life (T1/2), total body clearance (CL), volume of distribution (Vz), area under the curve from the time of dosing to the last measurable concentration (AUC0-t), area under the curve from the time of dosing extrapolated to infinity (AUC0-inf), and bioavailability were calculated using noncompartmental analysis modules in the FDA-certified pharmacokinetic program WinNonlin Professional v5.2 (Pharsight).
Briefly, the mice were administered 1 mg/kg or 5 mg/kg intravenously, or 5 mg/kg intraperitoneally. Blood samples were collected at 15 min, 1, 2, 3, 6, 8, 12, and 24 hours post administration.

[6] = 20 mg/kg, after 2 weeks of daily dosing

CC[C@H](C)[C@@H]1NC(=O)[C@@](C)(NC(=O)[C@H](CCCNC(=N)N)NC(=O)[C@H](CC(C)C)NC(=O)[C@@H](NC(=O)[C@H](CCC(N)=O)NC(=O)[C@H](CC(C)C)NC(C)=O)[C@@H](C)O)CCCC=CCCC[C@@](C)(C(=O)N[C@@H](CC(C)C)C(=O)N[C@@H](Cc2ccc3ccccc3c2)C(N)=O)NC(=O)[C@H](CCCNC(=N)N)NC(=O)[C@H](CCC(N)=O)NC1=O [WX-024, LQTLRXaa1IQRXaa2L]
IC50 [1]: 1920 nM
inhibition of cell growth ([1]; HCT116 cells, CellTiterGlo): particularly effective
effect on body weight ([2]; 5 mg/kg i.v. throughout the study): without an apparent effect on body weight
tumor volume (mean±standard error of mean) ([2]; 5 mg/kg): 2039±373.29 mm^3
tumor volume (mean±standard error of mean) ([2]; 10 mg/kg (i.v. then i.p. from Day 7)): 1370±114.39 mm^3
intestinal morphology ([2]; 10 mg/kg or 15 mg/kg, 22 days): maintained
tumor volume smaller than vehicle-treated group ([2]; 10 mg/kg): 44.9%
tumor volume (mean±standard error of mean) ([2]; 15 mg/kg (i.v. then i.p. from Day 7)): 1157.6±99.04 mm^3
average body weight loss compared to vehicle ([2]; 15 mg/kg i.v. daily, after 3 days of treatment): approximately 11%
Axin 2 staining of intestine ([2]; 15 mg/kg, 22 days): decreased Axin 2 staining
CD44 staining of tumor ([2]; 15 mg/kg, 22 days): decrease in CD44 staining
tumor volume smaller than vehicle-treated group ([2]; 15 mg/kg): 53.2%
tumor mass weight ([2]; 10 or 15 mg/kg, 22 days of treatment): substantially less than tumor mass of vehicle-treated mice
IC50, preliminary dose-response correlation with predicted tumor size ([2]; Colo320DM xenograft): 12.69 mg/kg
VEGFA expression in tumors ([2]; immunohistochemistry): capable of suppressing VEGFA expression in tumors
tumor volume over time compared to vehicle ([3]; 20 mg/kg i.p. daily, 14 days): substantially lower
tumor growth inhibition (TGI) ([3]; 20 mg/kg i.p. daily, after 3 days of dosing): 89.2%
tumor growth inhibition (TGI) ([3]; 20 mg/kg i.p. daily, after 12 days of dosing): 70.0%
active β-catenin expression in tumors ([3]; 20 mg/kg, 14 days): capable of suppressing active β-catenin expression in tumors
CD4+ T cell counts in blood [3, 6]: increase
CD8+ T cell counts in blood [3, 6]: increase
regulatory T cells in CD4+ T cell populations in tumor ([3]; 20 mg/kg, end of study): significantly reduced
drug-related toxicity ([4]; animals chronically dosed): no particular drug-related toxicity was observed
average tumor growth inhibition rate ([4]; multiple animal models, administered for 3-6 weeks): 70-80%
half-life [5]: 2.4 to 2.5 h
